The source of these data is US10570179B2, “Substituted urea depsipeptide analogs as activators of the CLPP endopeptidase” (priority 2016, dated 2020).

As a reminder, the IC50 is the concentration needed to halve the response being measured. A lower IC50 goes with inhibition by little substance.

Series [1] deals with T1, Sa-ClpP (Staphylococcus aureus, UniProt Q2G036).
T1 construct: made in house; host or cells: E. coli BL21 (DE3)
Briefly: ADEP displacement fluorescence polarization assay. Format: binding, S. aureus. As to conditions: displacement of FP probe ADEP 2591 from Sa-ClpP. As to the method: A fluorescence polarization (FP) assay was used to determine the activity of the disclosed compounds in displacing an ADEP analogue from ClpP. Briefly, the assay was performed in black 384 well, flat bottom, low volume plates (Greiner Bio-One, Monroe, N.C., catalog #784076). 20 μL of a pre-equilibrated (1 hr, room temperature) master mix (15 μM Sa-ClpP, 2% DMSO (v/v) and 50 nM FP probe in TrisHCl, pH 8.0)) was pipetted into each well using a Well-Mate (Thermo Scientific, Waltham, Mass.). Sa-ClpP was prepared as described above for the ClpP activation assay. The FP probe was ADEP 2591 (structure shown above). The ADEP 2591 comprises a TAMRA fluorophore linked to a core based on modified ADEP 2378 via a short alkyl linker. Using pin transfer, approximately 0.4 μL (2% v/v DMSO) of each compound or control was added per well. After addition of compounds and controls, plates were allowed to incubate for an additional 120 minutes at room temperature. All assays were performed in triplicate. Polarization was monitored using an EnVision Multilabel reader (Perkin-Elmer, Waltham, Mass.) by exciting the FP probe at 530±25 nm, and monitoring fluorescence intensity of both parallel and perpendicular polarized light at 579±25 nm. Readout was in millipolarization units (mP).
Signal gain and G factors were determined in wells containing 200 μM ADEP 2378, which had been previously verified (data not shown) as containing completely unbound ADEP 2591. Data collected was normalized to values obtained from positive (200 μM ADEP 2378) or negative (DMSO) controls. Curves were fit with non-linear regression using the equation “log [inhibitor] vs. Response-variable slope (four parameters)-symmetrical” in the program Prism 6 (GraphPad Software, La Jolla, Calif. USA, www.graphpad.com). The structures for ADEP 2378 and ADEP 2591 are shown above. ADEP 2378 is (E)-N—((S)-1-(((2R,6S,8aS,14aS,20S,23aS)-2,6-dimethyl-5,8,14,19,23-pentaoxooctadecahydro-1H,5H,14H,19H-pyrido[2,1-i]dipyrrolo[2,1-c:2′,1′-1][1]oxa[4,7,10,13]tetraazacyclohexadecin-20-yl)amino)-1-oxo-3-phenylpropan-2-yl)pent-2-enamide. ADEP 2591 is 5-(3-(3-((6S,9S,11aS,17S,20aS)-6,10-dimethyl-5,8,11,16,20-pentaoxo-17-((S)-2-((E)-pent-2-enamido)-3-phenylpropanamido)hexadecahydro-1H,5H,16H-dipyrrolo[2,1-c:2′,1′-1][1]oxa[4,7,10,13]tetraazacyclohexadecin-9-yl)propyl)thioureido)-2-(6-(dimethylamino)-3-(dimethyliminio)-3H-xanthen-9-yl)benzoate.

Series [2] in a line: Microsomal metabolic stability. Format: in vitro ADME, human. As to the method:
(§1) Compounds were initially prepared by dissolving them into DMSO at a final concentration of 10 mM. NADPH regenerating solutions A and B and mouse liver microsomes (CD-1) were obtained from BD Gentest (Woburn, Mass.). Ninety-six well deep well plates were obtained from MidWest Scientific Inc (Valley Park, Mo.).
(§2) Sample preparation for microsomal stability was modified from methods of Di, L., et al., Int J Pharm. 2005 Jun. 13; 297(1-2):110-9. A set of incubation times of 0, 15, 30, 60, 120, and 240 minutes were used. Mouse liver microsomal solutions were prepared by adding 58 μL of concentrated human or mouse liver microsomes (20 mg/mL protein concentration) to 1.756 mL of 0.1 M potassium phosphate buffer (pH 7.4) and 5 μL of 0.5 M EDTA to make a 0.6381 mg/mL (protein) microsomal solution. NADPH regenerating agent contained 113 μL of NADPH A, 23 μL of NADPH B, and 315 μL of 0.1 M potassium phosphate buffer (pH 7.4). The diluted test compound solutions (2 μL) were each added directly to a 1.79 mL of liver microsomal solution. This solution was mixed and 90 μL was transferred to 6 time points plates (each in triplicate wells). For the time 0 plate, 225 μL of cold acetonitrile with internal standard ([…] warfarin) was added to each well, followed by addition of NADPH regenerating agent (22.5 μL) and no incubation. For other five time points' plate, NADPH regenerating agent (22.5 μL) was added to each well to initiate the reaction. The plates were incubated at 37° C. for the required time, followed by quenching of the reaction by adding 225 μL of cold acetonitrile with internal standard (4 μg/ml warfarin). All of the plates were sealed and mixed well at 600 rpm for 10 minutes followed by centrifugation at 4000 rpm for 20 minutes. The supernatants (120 μL) were transferred to analytical plates for analysis by LCMS. LCMS conditions were described in the materials and instrumentation section above. The metabolic stability is evaluated via the half-life from least-squares fit of the multiple time points based on first-order kinetics.

The nature of series [3]: Microsomal metabolic stability. Format: in vitro ADME, mouse. On the procedure:
as §1, §2

Numbered stars: 1 amine (or outer) side, 2 acyl side, 3 side chain; on linkers, the order of the positions; unused ones are H or OH. Bridge positions count the residues as written; N and C are the ends. Square brackets hold non-standard residues; d marks the D form. Peptide text beside a SMILES is read from it. * marks the point of attachment. Piperazine(2S-CO,4-Me) = CN1CCN[C@H](C(=O)O)C1; NH(1,3-benzodioxol-5-yl) = c1cc2c(cc1N*)OCO2; Phe(3-Me) = Cc1cccc(C[C@H](N)C(=O)O)c1; NH(4-Cl-2-F-phenyl) = Fc1cc(Cl)ccc1N*; Pro(4R-Me) = C[C@H]1CN[C@H](C(=O)O)C1; NH(4-Et-phenyl) = CCc1ccc(N*)cc1; NH(4-Me-phenyl) = Cc1ccc(N*)cc1; aThr = C[C@H](O)[C@H](N)C(=O)O; CO = O=C([*:1])[*:2]; X2 = Fc1cc(N*)ccc1Cl

T1 sequence (Q2G036 whole entry): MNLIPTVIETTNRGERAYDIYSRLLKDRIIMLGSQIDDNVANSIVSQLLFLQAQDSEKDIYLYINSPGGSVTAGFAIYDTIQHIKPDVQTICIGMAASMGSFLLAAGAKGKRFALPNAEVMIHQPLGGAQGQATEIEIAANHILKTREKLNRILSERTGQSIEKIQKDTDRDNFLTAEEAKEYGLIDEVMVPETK

As for `Cc1cccc(C[C@H](NC(=O)Nc2ccc(Cl)cc2F)C(=O)N[C@@H]2C(=O)N3CCC[C@H]3C(=O)N3CCN(C)C[C@H]3C(=O)N[C@@H](C)C(=O)N3C[C@H](C)C[C@H]3C(=O)O[C@H]2C)c1` [Compound 11, (S)-2-(3-(4-CHLORO-2-FLUOROPHENYL)UREIDO)-N-((6AS,12S,13S,15AS,17R,21S,23AS)-2,13,17,21-TETRAMETHYL-6,11,15,20,23-PENTAOXOOCTADECAHYDRO-2H,6H,11H,15H-PYRAZINO[2,1-I]DIPYRROLO[2,1-C:2′,1′-L][1]OXA[4,7,10,13]TETRAAZACYCLOHEXADECIN-12-YL)-3-(M-TOLYL)PROPANAMIDE] ({NH(4-Cl-2-F-phenyl)-CO}-[Phe(3-Me)][aThr]P[Piperazine(2S-CO,4-Me)]A[Pro(4R-Me)]; ester 2-C), the IC50 in series [1] worked out at 3.45 ± 0.2 µM. Further, the “Human” value in series [2] (human, pH 7.4) amounted to 0.91 ± 0.10 h. Also, in series [3] (CD-1, mouse, pH 7.4), the “Mouse” value came to 0.67 ± 0.07 h.

With `Cc1cccc(C[C@H](NC(=O)Nc2ccc(Cl)cc2F)C(=O)N[C@H]2COC(=O)[C@@H]3C[C@@H](C)CN3C(=O)[C@H](C)NC(=O)[C@@H]3CCCCN3C(=O)[C@@H]3C[C@H](N)CN3C2=O)c1` [Compound 12, (S)—N-((2R,6S,8AS,14AS,16S,20S,23AS)-16-AMINO-2,6-DIMETHYL-5,8,14,19,23-PENTAOXOOCTADECAHYDRO-1H,5H,14H,19H-PYRIDO[2,1-I]DIPYRROLO[2,1-C:2′,1′-L][1]OXA[4,7,10,13]TETRAAZACYCLOHEXADECIN-20-YL)-2-(3-(4-CHLORO-2-FLUOROPHENYL)UREIDO)-3-(M-TOLYL)PROPANAMIDE], the IC50 in series [1] is 6.03 ± 0.3 µM. In addition, the “Human” value in series [2] (human, pH 7.4) was determined as 3.34 ± 0.6 h. Moreover, the “Mouse” value in series [3] (CD-1, mouse, pH 7.4) was 2.34 ± 0.44 h.

Regarding `Cc1cccc(C[C@H](NC(=O)Nc2ccc(Cl)cc2F)C(=O)N[C@H]2COC(=O)[C@@H]3C[C@@H](C)CN3C(=O)[C@H](C)NC(=O)[C@@H]3CN(C)CCN3C(=O)[C@@H]3CCCN3C2=O)c1` [Compound 13, (S)-2-(3-(4-CHLORO-2-FLUOROPHENYL)UREIDO)-3-(M-TOLYL)-N-((6AS,12S,15AS,17R,21S,23AS)-2,17,21-TRIMETHYL-6,11,15,20,23-PENTAOXOOCTADECAHYDRO-2H,6H,11H,15H-PYRAZINO[2,1-I]DIPYRROLO[2,1-C:2′,1′-L][1]OXA[4,7,10,13]TETRAAZACYCLOHEXADECIN-12-YL)PROPANAMIDE] ({NH(4-Cl-2-F-phenyl)-CO}-[Phe(3-Me)]SP[Piperazine(2S-CO,4-Me)]A[Pro(4R-Me)]; ester 2-C), the IC50 in series [1] was determined as 16.4 ± 0.8 µM. In series [2] (human, pH 7.4), the “Human” value is 0.38 ± 0.04 h. Also, the “Mouse” value in series [3] (CD-1, mouse, pH 7.4) worked out at 0.49 ± 0.03 h.

Compound `Cc1cccc(C[C@H](NC(=O)Nc2ccc(Cl)c(F)c2)C(=O)N[C@H]2COC(=O)[C@@H]3C[C@@H](C)CN3C(=O)[C@H](C)NC(=O)[C@@H]3CN(C)CCN3C(=O)[C@@H]3CCCN3C2=O)c1` [Compound 14, (S)-2-(3-(4-CHLORO-3-FLUOROPHENYL)UREIDO)-3-(M-TOLYL)-N-((6AS,12S,15AS,17R,21S,23AS)-2,17,21-TRIMETHYL-6,11,15,20,23-PENTAOXOOCTADECAHYDRO-2H,6H,11H,15H-PYRAZINO[2,1-I]DIPYRROLO[2,1-C:2′,1′-L][1]OXA[4,7,10,13]TETRAAZACYCLOHEXADECIN-12-YL)PROPANAMIDE] ({X2-CO}-[Phe(3-Me)]SP[Piperazine(2S-CO,4-Me)]A[Pro(4R-Me)]; ester 2-C) came in with an IC50 in series [1] of 5.19 ± 0.2 µM. The “Human” value in series [2] (human, pH 7.4) turned out to be 0.73 ± 0.07 h. The “Mouse” value in series [3] (CD-1, mouse, pH 7.4) stood at 3.15 ± 0.26 h.

Turning to `Cc1ccc(NC(=O)N[C@@H](Cc2cccc(C)c2)C(=O)N[C@H]2COC(=O)[C@@H]3C[C@@H](C)CN3C(=O)[C@H](C)NC(=O)[C@@H]3CN(C)CCN3C(=O)[C@@H]3CCCN3C2=O)cc1` [Compound 15, (S)-3-(M-TOLYL)-2-(3-(P-TOLYL)UREIDO)-N-((6AS,12S,15AS,17R,21S,23AS)-2,17,21-TRIMETHYL-6,11,15,20,23-PENTAOXOOCTADECAHYDRO-2H,6H,11H,15H-PYRAZINO[2,1-I]DIPYRROLO[2,1-C:2′,1′-L][1]OXA[4,7,10,13]TETRAAZACYCLOHEXADECIN-12-YL)PROPANAMIDE] ({NH(4-Me-phenyl)-CO}-[Phe(3-Me)]SP[Piperazine(2S-CO,4-Me)]A[Pro(4R-Me)]; ester 2-C), the IC50 in series [1] came out at 8.12 ± 0.2 µM. In addition, in series [2] (microsomal metabolic stability half-life, human liver microsomes), the “Human” value was 0.67 ± 0.04 h. Moreover, the “Mouse” value in series [3] (microsomal metabolic stability half-life, mouse liver microsomes) is 2.28 ± 0.16 h.

`CCc1ccc(NC(=O)N[C@@H](Cc2cccc(C)c2)C(=O)N[C@H]2COC(=O)[C@@H]3C[C@@H](C)CN3C(=O)[C@H](C)NC(=O)[C@@H]3CN(C)CCN3C(=O)[C@@H]3CCCN3C2=O)cc1` [Compound 16, (S)-2-(3-(4-ETHYLPHENYL)UREIDO)-3-(M-TOLYL)-N-((6AS,12S,15AS,17R,21S,23AS)-2,17,21-TRIMETHYL-6,11,15,20,23-PENTAOXOOCTADECAHYDRO-2H,6H,11H,15H-PYRAZINO[2,1-I]DIPYRROLO[2,1-C:2′,1′-L][1]OXA[4,7,10,13]TETRAAZACYCLOHEXADECIN-12-YL)PROPANAMIDE] ({NH(4-Et-phenyl)-CO}-[Phe(3-Me)]SP[Piperazine(2S-CO,4-Me)]A[Pro(4R-Me)]; ester 2-C) had an IC50 in series [1] of 5.46 ± 0.2 µM. Also, in series [2] (human, pH 7.4), the “Human” value was determined as 0.86 ± 0.07 h. In series [3] (CD-1, mouse, pH 7.4), the “Mouse” value was 1.80 ± 0.09 h.

For the compound `Cc1cccc(C[C@H](NC(=O)Nc2ccc3c(c2)OCO3)C(=O)N[C@H]2COC(=O)[C@@H]3C[C@@H](C)CN3C(=O)[C@H](C)NC(=O)[C@@H]3CN(C)CCN3C(=O)[C@@H]3CCCN3C2=O)c1` [Compound 17, (S)-2-(3-(BENZO[D][1,3]DIOXOL-5-YL)UREIDO)-3-(M-TOLYL)-N-((6AS,12S,15AS,17R,21S,23AS)-2,17,21-TRIMETHYL-6,11,15,20,23-PENTAOXOOCTADECAHYDRO-2H,6H,11H,15H-PYRAZINO[2,1-I]DIPYRROLO[2,1-C:2′,1′-L][1]OXA[4,7,10,13]TETRAAZACYCLOHEXADECIN-12-YL)PROPANAMIDE] ({NH(1,3-benzodioxol-5-yl)-CO}-[Phe(3-Me)]SP[Piperazine(2S-CO,4-Me)]A[Pro(4R-Me)]; ester 2-C), in series [1], the IC50 worked out at 6.02 ± 0.2 µM. Also, the “Human” value in series [2] (human, pH 7.4) was 1.58 ± 0.25 h. The “Mouse” value in series [3] (CD-1, mouse, pH 7.4) was 4.83 ± 0.46 h.
